Laboratory results published in PubChem BioAssay AID1259407 (Chemical Carcinogenesis Research Information System (CCRIS), 2018).
Activity calls are given as the source filed them. The rule behind the calls is not given here.

System: CCRIS mutagenicity, Ames/micronucleus/aberration tests
Experiment: CCRIS mutagenicity studies
[1] = Test System: AMES SALMONELLA TYPHIMURIUM, Strain/Indicator: TA100, Metabolic Activation: NONE, Method: STANDARD PLATE
[2] = Test System: AMES SALMONELLA TYPHIMURIUM, Strain/Indicator: TA98, Metabolic Activation: NONE, Method: STANDARD PLATE
[3] = Test System: AMES SALMONELLA TYPHIMURIUM, Strain/Indicator: TA98, Metabolic Activation: RAT, LIVER, S-9, AROCLOR 1254, Method: STANDARD PLATE

SMILES	mutagenic call [1]	mutagenic call (Test System: AMES SALMONELLA TYPHIMURIUM, Strain/Indicator: TA98, Metabolic Activation: HAMSTER, LIVER, S-9, AROCLOR 1254, Method: STANDARD PLATE)	mutagenic call [2]	mutagenic call [3]	mutagenic call (Test System: AMES SALMONELLA TYPHIMURIUM, Strain/Indicator: TA100, Metabolic Activation: HAMSTER, LIVER, S-9, AROCLOR 1254, Method: STANDARD PLATE)	mutagenic call (Test System: AMES SALMONELLA TYPHIMURIUM, Strain/Indicator: TA100, Metabolic Activation: RAT, LIVER, S-9, AROCLOR 1254, Method: STANDARD PLATE)	mutagenic call (Test System: AMES SALMONELLA TYPHIMURIUM, Strain/Indicator: TA1535, Metabolic Activation: HAMSTER, LIVER, S-9, AROCLOR 1254, Method: STANDARD PLATE)	mutagenic call (Test System: AMES SALMONELLA TYPHIMURIUM, Strain/Indicator: TA1535, Metabolic Activation: NONE, Method: STANDARD PLATE)	mutagenic call (Test System: AMES SALMONELLA TYPHIMURIUM, Strain/Indicator: TA1535, Metabolic Activation: RAT, LIVER, S-9, AROCLOR 1254, Method: STANDARD PLATE)	mutagenic call (Test System: AMES SALMONELLA TYPHIMURIUM, Strain/Indicator: TA1537, Metabolic Activation: HAMSTER, LIVER, S-9, AROCLOR 1254, Method: STANDARD PLATE)	mutagenic call (Test System: AMES SALMONELLA TYPHIMURIUM, Strain/Indicator: TA1537, Metabolic Activation: NONE, Method: STANDARD PLATE)	mutagenic call (Test System: AMES SALMONELLA TYPHIMURIUM, Strain/Indicator: TA1537, Metabolic Activation: RAT, LIVER, S-9, AROCLOR 1254, Method: STANDARD PLATE)	mutagenic call (Test System: AMES SALMONELLA TYPHIMURIUM, Strain/Indicator: TA1538, Metabolic Activation: HAMSTER, LIVER, S-9, AROCLOR 1254, Method: STANDARD PLATE)	mutagenic call (Test System: AMES SALMONELLA TYPHIMURIUM, Strain/Indicator: TA1538, Metabolic Activation: NONE, Method: STANDARD PLATE)	mutagenic call (Test System: AMES SALMONELLA TYPHIMURIUM, Strain/Indicator: TA1538, Metabolic Activation: RAT, LIVER, S-9, AROCLOR 1254, Method: STANDARD PLATE)	mutagenic call (Test System: MOUSE LYMPHOMA, Strain/Indicator: L5178Y (TK+/TK-), Metabolic Activation: NONE, Method: SUSPENSION/PLATE)	mutagenic call (Test System: MOUSE LYMPHOMA, Strain/Indicator: L5178Y (TK+/TK-), Metabolic Activation: RAT, LIVER, S-9, AROCLOR 1254, Method: SUSPENSION/PLATE)
Cn1ccnc1N=O	active; positive	–	–	–	–	–	–	–	–	–	–	–	–	–	–	–	–
Nc1ccc(S(=O)(=O)Nc2cnc3c(Cl)cccc3n2)cc1	inactive; negative	inactive; negative	inactive; negative	inactive; negative	inactive; negative	inactive; negative	inactive; negative	inactive; negative	inactive; negative	inactive; negative	inactive; negative	inactive; negative	inactive; negative	inactive; negative	inactive; negative	inactive; negative. reevaluation of results: negative	inactive; negative. reevaluation of results: negative
O=[N+]([O-])c1ccc2cc3c(cc2c1)C=C[C@@H](O)[C@@H]3O	–	–	active; positive	active; positive	–	–	–	–	–	–	–	–	–	–	–	–	–
